The source made the active and inactive calls. No cut-off for these calls is given here.

In ChEMBL document CHEMBL5380814, “Targeting Receptor-Interacting Protein Kinase 1 by Novel Benzothiazole Derivatives: Treatment of Acute Lung Injury through the Necroptosis Pathway” (J Med Chem, 2023) one finds Activity and inhibition data, which are given here for one compound.

Test [1] deals with Mus musculus. Put plainly: In vivo anti-necrotptic activity in mTNFalpha induced C57BL/6J SIRS mouse model assessed as survival rate pretreated at 20 mg/kg, po for 1 hr followed by mTNFalpha/Z-VAD-FMK administration measured after 40 mins relative to control. Particulars: time 100 min, 1.667 h. The class given is functional.
The test system of test [2] is Mus musculus. In words: In vivo anti-necrotptic activity in mTNFalpha induced C57BL/6J SIRS mouse model assessed as reduction in serum IL-6 level pretreated at 5 to 20 mg/kg, po for 1 hr followed by mTNFalpha/Z-VAD-FMK administration measured after 3 hrs by ELISA analysis. Particulars: dose 5-20 mg/kg, time 4.0 hrs. The class given is functional, organism-based.
Test [3] addresses T1, Mixed lineage kinase domain-like protein (Homo sapiens) (UniProt Q8NB16).
T1 sequence (whole entry): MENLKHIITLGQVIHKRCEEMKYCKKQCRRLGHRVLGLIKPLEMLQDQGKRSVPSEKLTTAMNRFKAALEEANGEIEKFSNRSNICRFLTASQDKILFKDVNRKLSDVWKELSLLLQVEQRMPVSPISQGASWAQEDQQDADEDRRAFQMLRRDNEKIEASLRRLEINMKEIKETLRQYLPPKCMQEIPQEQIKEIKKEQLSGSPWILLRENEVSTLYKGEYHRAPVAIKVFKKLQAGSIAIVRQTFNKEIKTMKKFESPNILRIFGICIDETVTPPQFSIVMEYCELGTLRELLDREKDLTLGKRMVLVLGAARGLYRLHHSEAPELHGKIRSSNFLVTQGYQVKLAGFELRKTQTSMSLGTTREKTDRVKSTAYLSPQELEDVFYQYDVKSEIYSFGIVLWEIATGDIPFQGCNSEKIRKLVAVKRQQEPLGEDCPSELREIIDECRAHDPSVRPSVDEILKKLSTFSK
In words: Inhibition of MLKL phosphorylation in TSZ-induced human HT-29 cells assessed as blocking of TSZ-induced necrosome formation at 1 uM pretreated with compound for 0 to 6 hrs followed by TSZ stimulation for 6 hrs measured by Western analysis. The class given is cell-based. To be noted: time 6-12 hrs.

Test [4] concerns HT-29. Put plainly: Cytotoxicity against human HT-29 cells incubated at 100 uM for 16 to 24 hrs measured by cell-titre glo luminescent cell viability assay. The class given is functional, cell-based. Particulars: time 16-24 hrs.
The test system of test [5] is Mus musculus. In words: In vivo anti-inflammatory activity in NNK induced induced C57BL/6J ALI mouse model assessed as decrease in lung TNF-alpha mRNA level pretreated at 25 to 100 mg/kg, ip for 1 hr followed by NNK administration. The class given is functional, organism-based. Particulars: dose 25-100 mg/kg.
Test [6] deals with Mus musculus. Put plainly: In vivo anti-inflammatory activity in NNK induced induced C57BL/6J ALI mouse model assessed as less congestion in lung pretreated at 25 to 100 mg/kg, ip for 1 hr followed by NNK administration by HE staining analysis. To be noted: dose 25-100 mg/kg. The class given is functional, organism-based.
Test [7] has as its system HT-29. In words: Anti-necroptotic activity in human HT-29 cells assessed as protection against human TNFalpha/cycloheximide induced necroptosis preincubated with compound upto 10 uM for 16 to 24 hrs followed by TC stimulation for 24 hrs measured by cell-titre glo luminescent cell viability assay. The format is functional, cell-based. To be noted: time 40-48 hrs.
For test [8], the system named is Mus musculus. Put plainly: In vivo anti-necrotptic activity in mTNFalpha induced C57BL/6J SIRS mouse model assessed as protection from body temperature loss pretreated at 10 mg/kg, po for 1 hr followed by mTNFalpha/Z-VAD-FMK administration measured after 45 mins by electric thermometer. Particulars: time 105.0 min. The class given is functional, organism-based.
The target in test [9] is T2, Receptor-interacting serine/threonine-protein kinase 1 (Homo sapiens) (UniProt Q13546).
T2 sequence (whole entry): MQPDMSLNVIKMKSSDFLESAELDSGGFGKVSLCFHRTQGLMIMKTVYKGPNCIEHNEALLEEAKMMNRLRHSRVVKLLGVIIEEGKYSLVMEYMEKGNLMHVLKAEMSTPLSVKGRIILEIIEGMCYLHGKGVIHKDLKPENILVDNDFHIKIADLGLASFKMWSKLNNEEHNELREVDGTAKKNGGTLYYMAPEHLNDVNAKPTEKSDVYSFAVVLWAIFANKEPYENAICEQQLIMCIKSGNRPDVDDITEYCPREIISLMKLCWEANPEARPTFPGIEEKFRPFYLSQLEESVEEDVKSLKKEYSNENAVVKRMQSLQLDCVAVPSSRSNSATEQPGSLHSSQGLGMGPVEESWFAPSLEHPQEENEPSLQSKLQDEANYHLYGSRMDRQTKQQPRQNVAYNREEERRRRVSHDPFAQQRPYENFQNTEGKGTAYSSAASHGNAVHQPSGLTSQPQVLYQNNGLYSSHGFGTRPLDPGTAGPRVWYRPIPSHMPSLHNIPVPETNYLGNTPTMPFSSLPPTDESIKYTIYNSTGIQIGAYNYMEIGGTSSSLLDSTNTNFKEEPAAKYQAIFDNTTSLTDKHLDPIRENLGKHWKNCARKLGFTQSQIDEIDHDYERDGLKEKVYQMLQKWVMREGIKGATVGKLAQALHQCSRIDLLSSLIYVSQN
In words: Inhibition of RIPK1 phosphorylation in TSZ-induced human HT-29 cells assessed as blocking of TSZ-induced necrosome formation at 1 uM pretreated with compound for 2 to 6 hrs followed by TSZ stimulation for 6 hrs measured by Western analysis. The format is cell-based. To be noted: time 8-12 hrs.

The subject of test [10] is HT-29. In words: Anti-necroptotic activity in human HT-29 cells assessed as inhibition of human TNFalpha/Smac mimetic/Z-VAD-FMK induced necroptosis preincubated with compound followed by TSZ stimulation for 12 hrs. The format is functional, cell-based.
The test system of test [11] is Mus musculus. Put plainly: In vivo anti-necrotptic activity in mTNFalpha induced C57BL/6J SIRS mouse model assessed as protection from body temperature loss pretreated at 20 mg/kg, po for 1 hr followed by mTNFalpha/Z-VAD-FMK administration measured after 45 mins by electric thermometer. The class given is functional, organism-based. To be noted: time 105.0 min.
The test system of the next test is L929. In words: Anti-necroptotic activity in mouse L929 cells assessed as inhibition of mouse TNFalpha/Z-VAD-FMK induced necroptosis preincubated with compound for 16 to 24 hrs followed by TZ stimulation for 12 hrs measured by cell-titre glo luminescent cell viability assay. To be noted: dose 6.3-800 nM, time 28-36 hrs. The class given is functional, cell-based.

Test [12] relates to Mus musculus. Put plainly: In vivo anti-inflammatory activity in NNK induced induced C57BL/6J ALI mouse model assessed as lung injury score pretreated at 50 mg/kg, ip for 1 hr followed by NNK administration relative to disease model (reference value: 5.7 +/- 0.5). The class given is functional.
Test [13] deals with HT-29. Put plainly: Anti-necroptotic activity in human HT-29 cells assessed as inhibition of human TNFalpha/Smac mimetic/Z-VAD-FMK induced necroptosis preincubated with compound upto 50 nM for 16 to 24 hrs followed by TSZ stimulation for 12 hrs measured by cell-titre glo luminescent cell viability assay. The class given is functional, cell-based. To be noted: time 28-36 hrs.

In test [14] the test system is Mus musculus. Put plainly: In vivo anti-inflammatory activity in NNK induced induced C57BL/6J ALI mouse model assessed as intact alveolar structure in lung pretreated at 25 to 100 mg/kg, ip for 1 hr followed by NNK administration by HE staining analysis. The class given is functional, organism-based. Particulars: dose 25-100 mg/kg.
Test [15] deals with Mus musculus. In words: In vivo anti-necrotoptic activity in NNK induced induced C57BL/6J ALI mouse model assessed as reduction in RIPK1 phosphorylation pretreated at 25 to 100 mg/kg, ip for 1 hr followed by NNK administration. To be noted: dose 25-100 mg/kg. The class given is functional, organism-based.

Turning to `CCS(=O)(=O)NC1CCC(C(=O)Nc2nc3cc(F)c(Oc4ccc(F)c(NC(=O)Cc5cccc(C(F)(F)F)c5)c4)cc3s2)CC1` (stereo unspecified), the Activity is 100% in the test with Mus musculus [1], “Dose-Dependent Effect” in the test with L929, 3.3 with Mus musculus [12] and “Dose-Dependent Effect” in the test on HT-29 [13]. The result in the test with Mus musculus [2], with HT-29 [4], with Mus musculus [5], in the test on Mus musculus [6], in the test on Mus musculus [8] and in the test on Mus musculus [11] was Active. Also, the result in the test on Mus musculus [14] and in the test with Mus musculus [15] was Active. Moreover, the inhibition result in test [3] and in test [9] was “Active” throughout. Moreover, the outcome in the test on HT-29 [7] and in the test with HT-29 [10] was inactive.
